Measured values taken from PMC10619691, “Effect of cyclic substituents on the anti-cancer activity and DNA interaction of ruthenium(II) bis-phenanthroline dipyridoquinoline” (Frontiers in Molecular Biosciences, 2023).

What was measured:
Format in all cases: cell-based, human
DU145 cells = assay: cell cycle analysis
Method: (§1) The cell cycle of cervical HeLa and prostate DU145 cancer cells was studied after treatment with VNK-572 and cisplatin, respectively (Figure 3). VNK-572 and cisplatin both reduced the G2 population after 72 h compared to control (e.g., 16%–11% in Hela (p = 0.06) and from 17% to 2% in the DU145 cell line (p = 0.003) for VNK-572) (Figure 3A). […] The DU145 cells saw a decrease in both phases following 72 h of treatment—from 68% to 40% and from 11% to 5% for the G1 and S phases, respectively (Figure 3A).

HeLa cells [1] = assay: cell cycle analysis
Method: as §1

HeLa cells [2] = assay: Annexin V apoptosis assay
Method: To further analyze the cytotoxicity mechanisms, annexin V was used to determine whether VNK-572/cisplatin exerts an anti-cancer activity through apoptosis. The Annexin V assay was performed following the established procedure. The steps included treating the cells with the complex for 24, 48, and 72 h in 6-well plates and incubating at 37°C. The cells were then rinsed with PBS, trypsinized, and neutralized using culture media. The cells were then spun in the centrifuge at 2500 RPM for 3 min, and the supernatant was discarded. The cell pellet was then washed first with PBS and then with ×1 binding buffer. The cells were then suspended in approximately 1 mL of binding buffer (1–5 million cells), and approximately 100 ul of this suspension was stained with 5 μL of annexin V-APC dye for 15 min. The cells were then washed with binding buffer and resuspended in 200 μL of binding buffer before being stained with 5 ul of propidium iodide. The cells were then analyzed using a flow cytometer within 4 h.

## F[P-](F)(F)(F)(F)F.F[P-](F)(F)(F)(F)F.[Ru+2].c1cnc2c(c1)c1ncc3c(c1c1cccnc12)CCCC3.c1cnc2c(c1)ccc1cccnc12.c1cnc2c(c1)ccc1cccnc12 [VNK-572]
DU145 cells; DU145, 72 h of treatment, control 11%
  S phase population: 5%
DU145 cells; DU145, 72 h of treatment, control 68%
  G1 phase population: 40%
DU145 cells; DU145, after 72 h, control 1%
  sub-G1 population: 51%
DU145 cells; DU145, after 72 h, control 17%
  G2 population: 2%
HeLa cells [1]
  changes in G1 / S phases: only slight changes
HeLa cells [1]; 72 h of treatment, control 5% (VNK-572), 6% (cisplatin)
  sub-G1 population: 12%
HeLa cells [1]; after 72 h, control 16%
  G2 population: 11%
HeLa cells [2]; 72 h of treatment, control 2%
  Q2 (propidium iodide and annexin V APC-stained cells), late-stage apoptosis: 11%
HeLa cells [2]; 72 h of treatment, control 14% (VNK-572), 13% (cisplatin)
  Q4 (annexin V APC), early apoptosis: 26%
HeLa cells [2]; after 72 h of treatment
  Q1 (necrosis): < 6%
